Tests used:
TrkC = TrkC (Homo sapiens, UniProt Q16288); assay: Surface Plasmon Resonance binding to immobilized TrkC; details: SPR, 25° C., HBS-EP buffer pH 7.4, receptor immobilized on CM4 chip
Protocol: The TrkA, TrkB and TrkC receptors and p75^NTR were immobilized on a sensor chip, CM4, using an amine-coupling kit as follows: the chip was activated by 20 μl activation solution, N-hydroxysuccinimide, (NHS) and N-ethyl-N′-(3-[…])-carbodiimide (EDC), the protein was immobilized using 30 μl of a mixture of 4 μl (0.5 μg/ml) protein in 50 μl 10 mM sodium acetate buffer (pH 4.0); and the chip was blocked by 35 μl blocking solution (ethanolamine-HCl). The receptor surface was regenerated between ligand injections with 15 μl 2 mM NaCl or 10 mM glycine-HCl, pH 2.5. In the present experiments a flow rate of 5 μl/min was used.
The curve corresponding to the difference between binding to the Trk receptors or the […] receptor and a blank chip was used for analysis.

[1] = system: cerebellar granule neurons (CGN); assay: Neurite outgrowth of primary cerebellar granule neurons in culture; type: cell-based, rat; details: CGN from 7 day old rats, peptide 3-81 μg/ml, 24 hours
Protocol: Dissociated cerebellar neurons were isolated from 7 day old rats. Cerebellum was isolated from the brain in ice cold modified Krebs Ringer solution, cleared of blood vessels, roughly homogenised by chopping and then trypsinised. The dissociated cells were washed in the presence of DNAse 1 and soybean trypsin inhibitor. Postnatal hippocampal neurons or cerebellar granule neurons (CGN) were plated at a density of 10,000 cells/cm^2 on uncoated 8-well permanox Lab-Tek chamber slides in Neurobasal medium supplemented with 0.4% (w/v) bovine serum albumin (BSA; Sigma-Aldrich), 2% (v/v) B27 Neurobasal supplement, 1% (v/v) glutamax, 100 U/ml penicillin, 100 μg/ml streptomycin and 2% 1 M HEPES (all from Gibco, BRL). After 24 hours, the neurons were fixed with 4% (v/v) formaldehyde for 20 minutes and thereafter immunostained using primary rabbit antibodies against GAP-43 and Alexa Fluor secondary goat anti-rabbit Ig antibodies. Images of at least 200 neurons for each group in each individual experiment were obtained systematically by computer assisted fluorescence microscopy as previously described (Rønn et al., 2000). Briefly, a Nikon Diaphot inverted microscope with a Nikon Plan 20× objective (Nikon, Tokyo, Japan) coupled to a video camera (Grundig Electronics, Germany) was used for recordings. A software package Prima developed at the Protein Laboratory (Copenhagen, Denmark) was used to make a stereologically based determination of neurite length (Rønn et al., 2000).
CGN prepared as described above were treated with different concentrations (3-81 μg/ml) of peptides NGF-C2, NGF-D, NGF-E, NGF-C1, NGF-EE, BDNF-E or BDNF-EE.

focal brain injury = assay: Traumatic brain injury model (focal cryo-lesion of right fronto-parietal cortex), immunohistochemistry; type: in vivo, rat; details: lesioned rats, 10 mg/kg/injection subcutaneously on day (−1), 1 and 3
Protocol: (§1) A focal brain injury on the right fronto-parietal cortex was made by applying a piece of dry-ice (−78° C.) directly onto the skull for 30 seconds in mice and 60 seconds in rats, as previously described in details (Penkowa et al., 2003).
Histochemistry and immunohistochemistry were performed on sections cut from organs taken from fixated animals. Rats and mice were deeply anesthetized with Brietal and flushed by cardiac perfusion with saline containing heparine (0.9% NaCl, 3 ml/L 5000 IU heparine) for 2 minutes followed by fixation with Zamboni's fixative (pH 7.4) for 4-8 minutes depending on the size of the animal. For immunohistochemical investigation, brain were dissected and postfixed in Zamboni's for 2-3 hours, dehydraded in graded alcohol followed by xylol and subsequently embedded in paraffin before being cut in 3 μm frontal sections throughout the entire area of the cryo lesion. […]
Following treatment as described above, sections were incubated overnight at 5° C. with one of the following primary antibodies: polyclonal rabbit anti-cow glial fibrillary acidic protein (GFAP) 1:250 (a marker for astrocytes; DakoCytomation); monoclonal mouse anti-8-hydroxydeoxyguanosine (8-OH-dG) diluted 1:100 in goat serum (a marker for DNA oxidation; Chemicon, Temacula, Calif., USA). The primary antibody was detected with biotynilated secondary antibodies, incubated with streptavidin-biotin-peroxidase complex for 30 min. […]
as §1, with “In vivo experiments—A” for “A”, “2003). […] The primary antibody was detected with biotynilated secondary antibodies, incubated with streptavidin-biotin-peroxidase complex for 30 min. […]” for “2003).”

Sequence of TrkC (Q16288 32-839, species assumed): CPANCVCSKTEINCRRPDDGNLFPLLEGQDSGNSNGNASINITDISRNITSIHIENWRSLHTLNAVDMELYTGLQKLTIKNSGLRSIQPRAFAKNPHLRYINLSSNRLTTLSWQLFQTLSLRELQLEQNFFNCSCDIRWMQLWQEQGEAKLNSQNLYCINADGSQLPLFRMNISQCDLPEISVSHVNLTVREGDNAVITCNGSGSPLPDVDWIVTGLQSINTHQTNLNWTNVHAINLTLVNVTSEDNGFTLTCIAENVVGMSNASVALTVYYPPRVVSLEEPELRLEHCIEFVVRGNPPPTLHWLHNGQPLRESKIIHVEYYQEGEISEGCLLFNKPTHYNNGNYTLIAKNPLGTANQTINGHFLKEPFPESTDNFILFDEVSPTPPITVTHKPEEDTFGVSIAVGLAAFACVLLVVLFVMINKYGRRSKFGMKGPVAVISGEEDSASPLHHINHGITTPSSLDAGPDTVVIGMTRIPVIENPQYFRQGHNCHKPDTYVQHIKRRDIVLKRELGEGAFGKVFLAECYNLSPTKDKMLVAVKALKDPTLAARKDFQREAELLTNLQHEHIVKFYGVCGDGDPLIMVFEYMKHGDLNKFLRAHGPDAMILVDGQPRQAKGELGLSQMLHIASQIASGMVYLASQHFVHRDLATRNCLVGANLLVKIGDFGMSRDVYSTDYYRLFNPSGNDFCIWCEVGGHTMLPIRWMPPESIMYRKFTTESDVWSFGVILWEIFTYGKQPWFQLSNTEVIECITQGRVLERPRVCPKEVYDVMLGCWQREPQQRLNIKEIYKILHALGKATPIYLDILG

| Substance | neurite outgrowth from primary neurons in culture [1] | other results |
| --- | --- | --- |
| BDNF: Brain-derived neurotrophic factor, member of the neurotrophin family, reference ligand in SPR | – | Kd (TrkC): 14 nM |
| H-CVLSRKAVRRA-OH [NGF-C2] | significantly stimulate neurite outgrowth | – |
| H-RGIDKRHWNSQ-OH [BDNF-E] | significantly stimulate neurite outgrowth | – |
| H-RGIDSKHWNSY-OH [NGF-E] | significantly stimulate neurite outgrowth | – |
| H-SYVRALTMDSKKRIGWR-OH [BDNF-EE] | significantly stimulate neurite outgrowth | cortical astrocytes as reflected by immunostaining for GFAP (focal brain injury): activation of cortical astrocytes; microglia activation as reflected by binding of tomato lectin (focal brain injury): inhibition of microglia activation; oxidative stress as reflected by immunostaining for 8-hydroxydeoxyguanosine (focal brain injury): inhibition of oxidative stress |
| H-TFVKALTMDGKQAAWR-OH [NGF-EE] | significantly stimulate neurite outgrowth | – |
| NGF-D: NGF-derived peptide, amino acids 2-14 of SEQ ID NO: 1 (YETKCRDPNPVDSG); lacks the hydrophobic residue of motif I (listed as Homo sapiens) | does not have neuritogenic activity | – |
| RIDTACV (listed as Homo sapiens) [NGF-C1, NGF-derived peptide, motif I] | significantly stimulate neurite outgrowth | – |

Reference: patent US8008259B2, “Neurotrophin-derived peptide sequences” (Copenhagen University, Techtrans Unit, priority 2005, dated 2011)
